Measurements reported in patent US20260176289A1, “SMALL MOLECULE INHIBITORS OF KRAS PROTEINS” (Merck Sharp & Dohme LLC, priority 2022, published 2026).
pIC50: −log10 of the molar value. Like-named read-outs stand apart in the source and are kept apart here.

Tests used:
[1] = test system: MKN-1 cells; assay: Cellular phospho-ERK assay, MKN-1 cells (amplified wild-type KRAS); type: cell-based; details: Homo sapiens, read-out: MKN1 pERK IC50
Protocol: (§1) Procedure for Cellular Phospho-ERK Assay in KRAS Wild Type and Mutant (G12D, G12V) Cell Lines
(§2) MKN-1 cells (JCRB JCRB0252) containing amplified wild-type KRAS, were cultured in growth medium that contains RPMI 1640-GlutaMAX™-I (ThermoFisher Scientific 61870) containing 10% heat inactivated fetal bovine serum (ThermoFisher Scientific 10091148), 1 mM sodium pyruvate and 10 mM HEPES. PANC08.13 cells (ATCC® CRL-2551™), containing homozygous KRAS-G12D activating mutation, were cultured in growth medium made of RPMI1640-GlutaMAX™-I (ThermoFisher Scientific 61870) containing 15% heat inactivated fetal bovine serum (ThermoFisher Scientific 10091148)). AsPC-1 cells (ATCC® CRL-1682™), containing homozygous KRAS-G12D activating mutation, were cultured in T150 flask in growth medium (RPMI medium 1640-GlutaMAX™-I (ThermoFisher Scientific 61870) containing 10% fetal bovine serum (ThermoFisher Scientific 10091148)). SW620 cells (ATCC® […]), containing homozygous KRAS-G12V activating mutation, were cultured in growth medium that contains RPMI 1640-GlutaMAX™-I (ThermoFisher Scientific 61870) containing 10% heat inactivated fetal bovine serum (ThermoFisher Scientific 10091148).
(§3) Cells for the assay were harvested in growth medium after TrypLE (ThermoFisher scientific 12604021) digestion and were seeded in a 384-well collagen coated cell culture plate (Corning 356702) at a density of 10,000-15,000 cells/20 μL/well, and incubated at 37° C., 5% CO2 overnight. The compound (with 10 mM stock concentration) dose-response titrations were prepared [30 μM final ERK detection assay concentration and 1:3 dilutions, 10-point dose response] and appropriate amounts (270 nL) of test compounds were dispensed in a 384-well intermediate plate using an Echo 550 liquid handler. 30 μL/well of RPMI medium 1640-GlutaMAX™—I was added to the intermediate plate and the contents of the intermediate plate (10 μL/well) were then transferred to the 384-well collagen coated cell culture plate, which was incubated at 37° C., 5% CO2 for 2 hours. After removal of medium from the collagen coated cell culture plate, cells were lysed in lysis buffer from Alpha SureFire® Ultra™ Multiplex p-ERK and total ERK assay kit (PerkinElmer MPSU-PTERK) containing Halt™ Protease and Phosphatase inhibitor cocktail (ThermoFisher Scientific 78446) at room temperature with constant shaking at 300 rpm for 30 minutes. The cell lysates were then transferred to an OptiPlate-384 plate (PerkinElmer 6005620), and the phosphorylation of ERK (p-ERK) and total ERK levels were detected by Alpha SureFire® Ultra™ Multiplex p-EEK kit and total ERK assay kit (PerkinElmer MPSU-PTERK) following the manufacturer's protocol. Assay plates were read on a En Vision Multimode Plate Reader (PerkinElmer), and the ratio of p-ERK vs. total ERK in each well was used as the final readout. Dose response curves were analyzed using a 4-parameter logistic model to calculate IC50 values using Spotfire software.

[2] = test system: AsPC-1 cells; assay: Cellular phospho-ERK assay, AsPC-1 cells (homozygous KRAS-G12D); type: cell-based; details: Homo sapiens, ASPC1, 2 h, read-out: AsPC1 pERK IC50
Method in brief: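 Cells were seeded overnight, then treated 2 h at 37° C with compound in a 10-point, 1:3 titration from 30 μM top final concentration. Lysates were assayed by AlphaLISA SureFire Ultra for p-ERK and total ERK. IC50 came from a 4-parameter logistic fit of the p-ERK/total ERK ratio.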

[3] = target: KRAS-WT (Homo sapiens, UniProt P01116); assay: SOS-catalyzed nucleotide exchange assay (Procedure A, TR-FRET), KRAS-WT; type: biochemical; details: nucleotide exchange, read-out: KRAS WT GNE IC50
Method in brief: (§4)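 Inhibitors stabilizing the Bodipy-GDP state are detected as retained TR-FRET from a preformed biotinylated RAS/Tb-streptavidin complex. They are preincubated 60 min at room temperature, then human SOS and 3 mM GTP are added. G12V runs 90 min at 1.25 nM RAS/160 nM SOS. G12C (3 nM), WT (1 nM) and NRAS (1.25 nM) run 60 min with 40 nM SOS.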

[4] = target: KRAS-G12D (Homo sapiens, UniProt P01116, G12D); assay: SOS-catalyzed nucleotide exchange assay (Procedure A, TR-FRET), KRAS-G12D; type: biochemical; details: nucleotide exchange, read-out: KRAS G12D GNE IC50
Method in brief: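 Signal ratio (520/495 nm, excitation 340 nm) reports Bodipy-GDP retention on biotinylated RAS after SOS-catalyzed exchange with 3 mM GTP. SOS was 40 nM, except 160 nM for G12V. Room-temperature exchange lasted 60 min (90 min for G12V), following a 60 min compound preincubation.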

[5] = target: KRAS-G12V (Homo sapiens, UniProt P01116, G12V); assay: SOS-catalyzed nucleotide exchange assay (Procedure A, TR-FRET), KRAS-G12V; type: biochemical; details: nucleotide exchange, read-out: KRAS G12V GNE IC50
Method in brief: as §4

[6] = test system: SW620 cells; assay: Cellular phospho-ERK assay, SW620 cells (homozygous KRAS-G12V); type: cell-based; details: Homo sapiens, read-out: SW620 pERK IC50
Protocol: as §1, §2, §3

[7] = amplified wild-type KRAS, 2 hours
[8] = SW-620, 2 hours compound incubation

Sequence of KRAS-G12D (P01116 with tags, fused parts or gaps isoform P01116-2 G12D): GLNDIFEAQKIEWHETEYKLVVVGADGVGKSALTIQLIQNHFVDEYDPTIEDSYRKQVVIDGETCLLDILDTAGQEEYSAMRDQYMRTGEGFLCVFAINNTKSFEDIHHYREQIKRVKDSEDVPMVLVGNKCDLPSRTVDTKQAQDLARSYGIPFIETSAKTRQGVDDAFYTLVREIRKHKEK
Sequence of KRAS-G12V (P01116 with tags, fused parts or gaps isoform P01116-2 G12V): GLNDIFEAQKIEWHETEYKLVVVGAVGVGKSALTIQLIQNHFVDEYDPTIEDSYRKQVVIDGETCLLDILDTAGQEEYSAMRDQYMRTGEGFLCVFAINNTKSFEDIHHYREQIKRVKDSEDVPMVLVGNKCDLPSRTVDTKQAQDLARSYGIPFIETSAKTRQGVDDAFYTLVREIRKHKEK
Sequence of KRAS-WT (P01116 with tags, fused parts or gaps isoform P01116-2): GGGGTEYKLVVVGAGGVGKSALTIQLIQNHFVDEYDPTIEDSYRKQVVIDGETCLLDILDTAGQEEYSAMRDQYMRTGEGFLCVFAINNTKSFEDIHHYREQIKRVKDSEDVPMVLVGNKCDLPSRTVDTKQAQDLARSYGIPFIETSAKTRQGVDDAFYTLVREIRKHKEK

Row | pIC50 ([1]; 2 hours compound incubation) | pIC50 ([2]; 2 hours compound incubation) | pIC50 [6, 8] | Structure (SMILES) | pIC50 [1, 7] | pIC50 ([2]; KRAS-G12D, 2 hours) | pIC50 [3] | pIC50 [4] | pIC50 [5] | pIC50 ([6]; SW-620, KRAS-G12V, 2 hours)
1 |  |  |  | C[C@@]1(O)COCCN(c2nc(OC[C@@]34CCCN3C[C@H](F)C4)nc3sc4c(-c5c6c(cc7[nH]ncc57)CC5CC65)nccc4c23)C1 (stereo partly drawn) [Ex-90, (6S)-4-(2-(((2R,7aS)-2-fluorotetrahydro-1H-pyrrolizin-7a(5H)-yl)methoxy)-8-(4b,5,5a,6-tetrahydro-1H-cyclopropa[4,5]cyclopen-ta[1,2-f]indazol-4-yl)pyrido[4′,3′:4,5]thieno [2,3-d]pyrimidin-4-yl)-6-methyl-1,4-oxazepan-6-ol] | 6.76 | 6.51 | 6.82 | 7.31 | 7.07 | 6.71
2 | 7.24 | 6.79 | 7.21 | C#CC1=CCCc2cc3[nH]ncc3c(-c3nccc4c3sc3nc(OC[C@@]56CCCN5C[C@H](F)C6)nc(N5CCOC[C@@](C)(O)C5)c34)c21 [Ex-173, (6S)-4-(8-(5-ethynyl-7,8-dihydro-1H-benzo[f]indazol-4-yl)-2-(((2R,7aS)-2-fluorotetrahydro-1H-pyrrolizin-7a(5H)-yl)methoxy)pyrido[4′,3′:4,5]thieno[2,3-d]pyrimidin-4-yl)-6-methyl-1,4-oxazepan-6-ol] |  |  | 7.42 | 7.72 | 7.30 | 
3 | 6.74 | 6.42 | 6.88 | CO[C@@H]1CN2CCC[C@@]2(COc2nc(N3CCOC[C@@](C)(O)C3)c3c(n2)sc2c(-c4c(C5CC5)c(Cl)cc5[nH]ncc45)nccc23)C1 [Ex-228, (6S)-4-(8-(6-chloro-5-cyclopropyl-1H-indazol-4-yl)-2-(((25,7aS)-2-meth-oxytetrahydro-1H-pyrrolizin-7a(5H)-yl)methoxy)pyrido [4′,3′:4,5]thieno[2,3-d]pyrimidin-4-yl)-6-methyl-1,4-oxaze-pan-6-ol] |  |  | 7.28 | 7.79 | 7.42 | 
4 |  |  |  | C[C@@]1(O)COCCN(c2nc(OC[C@@]34CCCN3C[C@H](F)C4)nc3sc4c(-c5c(-c6ccoc6)c(Cl)cc6[nH]ncc56)nccc4c23)C1 [Ex-71, (6S)-4-(8-(6-chloro-5-(furan-3-yl)-1H-indazol-4-yl)-2-(((2R,7aS)-2-fluorotetrahydro-1H-pyrrolizin-7a(5H)-yl)methoxy)pyrido[4′,3′:4,5]thi-eno[2,3-d]pyrimidin-4-yl)-6-methyl-1,4-oxazepan-6-ol] | 7.30 | 7.18 | 7.75 | 8.40 | 7.94 | 6.82
5 |  |  |  | CCc1cc2[nH]ncc2c(-c2nccc3c2sc2nc(OC[C@@]45CCCN4C[C@H](F)C5)nc(N4CCOC[C@@](C)(O)C4)c23)c1C1CC1 [Ex-48, (6S)-4-(8-(5-cyclopropyl-6-ethyl-1H-indazol-4-yl)-2-(((2R,7aS)-2-fluorotetrahydro-1H-pyrrolizin-7a(5H)-yl)methoxy)pyrido[4′,3′:4,5]thi-eno[2,3-d]pyrimidin-4-yl)-6-methyl-1,4-oxazepan-6-ol] | 6.91 | 6.82 | 7.30 | 7.74 | 7.54 | 6.98
6 | 6.92 | 6.85 | 7.13 | Cc1cc2[nH]ncc2c(-c2nccc3c2sc2nc(OC[C@@]45CCCN4C[C@H](F)C5)nc(N4CCOC[C@]5(CCO5)C4)c23)c1C(F)(F)F [Ex-198, (4S)-9-(2-(((2R,7aS)-2-fluorotetrahydro-1H-pyr-rolizin-7a(5H)-yl)meth-oxy)-8-(6-methyl-5-(tri-fluoromethyl)-1H-indazol-4-yl)pyrido[4′,3′:4,5]thieno[2,3-d]pyrimidin-4-yl)-1,6-dioxa-9-azaspiro [3.6]decane] |  |  | 6.88 | 7.44 | 7.47 | 
7 |  |  |  | Cc1cc2[nH]ncc2c(-c2nccc3c2sc2nc(OC[C@@]45CCCN4C[C@H](F)C5)nc(N4CCOC[C@@](C)(O)C4)c23)c1C1(C)CC1 [Ex-62, (6S)-4-(2-(((2R,7aS)-2-fluorotetrahydro-1H-pyrrolizin-7a(5H)-yl)methoxy)-8-(6-methyl-5-(1-methylcyclopropyl)-1H-indazol-4-yl)pyrido[4′,3′:4,5]thieno [2,3-d]pyrimidin-4-yl)-6-methyl-1,4-oxazepan-6-ol] | 6.60 | 6.76 | 7.27 | 7.53 | 7.66 | 6.88
8 | 7.05 | 6.74 | 7.07 | CN(C)C1COC2C[C@@]21COc1nc(N2CCOC[C@@](C)(O)C2)c2c(n1)sc1c(-c3c(C4(F)CC4)c(Cl)cc4[nH]ncc34)nccc12 (stereo partly drawn) [Ex-269, (6S)-4-(8-(6-chloro-5-(1-fluorocyclopropyl)-1H-indazol-4-yl)-2-((4-(dimethylamino)-2-oxabicyclo[3.1.0]hexan-5-yl)methoxy)pyri-do[4′,3′:4,5]thi-eno[2,3-d]pyrimidin-4-yl)-6-methyl-1,4-oxazepan-6-ol] |  |  | 7.60 | 8.09 | 7.70 | 
9 | 7.28 | 6.93 | 7.18 | C[C@@]1(O)COCCN(c2nc(OC[C@]3(CN4CCC5(CC5)C4)CC3(F)F)nc3sc4c(-c5c(C6(F)CC6)c(Cl)cc6[nH]ncc56)nccc4c23)C1 [Ex-262, (6S)-4-(2-(((R)-1-((5-azaspiro[2.4]heptan-5-yl)methyl)-2,2-difluorocyclopropyl)methoxy)-8-(6-chloro-5-(1-fluorocyclopropyl)-1H-indazol-4-yl)pyrido[4′,3′:4,5]thieno[2,3-d]pyrimidin-4-yl)-6-methyl-1,4-oxazepan-6-ol] |  |  | 7.65 | 8.35 | 7.57 | 
10 |  |  |  | C[C@@]1(O)COCCN(c2nc(OC[C@@]34CCCN3C[C@H](F)C4)nc3sc4c(-c5c(C6(F)CC6)c(C(F)(F)F)cc6[nH]ncc56)nccc4c23)C1 [Ex-55, (6S)-4-(8-(5-(1-fluorocyclopropyl)-6-(trifluoromethyl)-1H-indazol-4-yl)-2-(((2R,7aS)-2-fluorotetrahydro-1H-pyrrolizin-7a(5H)-yl)methoxy)pyrido[4′,3′:4,5]thi-eno[2,3-d]pyrimidin-4-yl)-6-methyl-1,4-oxazepan-6-ol] | 7.35 | 6.97 | 7.58 | 8.03 | 7.74 | 7.34
